Experimental data from ChEMBL document CHEMBL1909046, “DrugMatrix in vitro pharmacology data”.

Assays:
[1] = DRUGMATRIX: Tumor Necrosis Factor (TNF), Non-Selective radioligand binding (ligand: [125I] TNF-alpha); type: cell membranes, Membrane; settings: u-937; Not Active = under 50% inhibition at 10 µM
[2] = biological target: T1, Muscarinic acetylcholine receptor M5 (Homo sapiens, UniProt P08912); type: cell membranes, CHO-K1, Membrane; settings: cho-k1; also: in other assays of this panel Not Active means under 50% inhibition at 10 µM
T1 sequence (P08912 whole entry): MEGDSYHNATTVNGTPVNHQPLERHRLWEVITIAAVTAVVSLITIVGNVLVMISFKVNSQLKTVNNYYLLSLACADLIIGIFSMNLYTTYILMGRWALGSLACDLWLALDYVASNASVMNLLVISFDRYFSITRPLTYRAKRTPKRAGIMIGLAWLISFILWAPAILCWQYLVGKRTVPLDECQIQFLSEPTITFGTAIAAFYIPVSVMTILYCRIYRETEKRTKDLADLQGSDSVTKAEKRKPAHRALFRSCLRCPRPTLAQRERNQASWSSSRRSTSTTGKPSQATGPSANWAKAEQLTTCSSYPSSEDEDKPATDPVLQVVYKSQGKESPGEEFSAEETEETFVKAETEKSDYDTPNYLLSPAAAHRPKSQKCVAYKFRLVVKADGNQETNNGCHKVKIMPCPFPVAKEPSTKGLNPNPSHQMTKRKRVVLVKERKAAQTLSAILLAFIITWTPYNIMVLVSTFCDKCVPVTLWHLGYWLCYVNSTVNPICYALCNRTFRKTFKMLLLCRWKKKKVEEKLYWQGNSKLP

[3] = biological target: T2, C-X-C chemokine receptor type 2 (Homo sapiens, UniProt P25025); type: cell membranes, Membrane; settings: cho-k1; also: in other assays of this panel Not Active means under 50% inhibition at 10 µM
T2 sequence (P25025 whole entry): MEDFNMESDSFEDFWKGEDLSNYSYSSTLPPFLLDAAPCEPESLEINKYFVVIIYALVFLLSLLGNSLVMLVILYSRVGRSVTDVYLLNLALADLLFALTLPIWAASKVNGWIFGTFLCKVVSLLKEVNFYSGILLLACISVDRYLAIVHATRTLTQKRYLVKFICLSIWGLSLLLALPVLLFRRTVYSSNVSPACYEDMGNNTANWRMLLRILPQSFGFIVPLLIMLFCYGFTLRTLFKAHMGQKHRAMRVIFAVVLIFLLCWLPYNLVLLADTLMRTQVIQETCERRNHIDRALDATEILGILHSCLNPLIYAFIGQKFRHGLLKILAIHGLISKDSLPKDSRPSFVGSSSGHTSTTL

Cytochrome P450 1A2 = biological target: T3, Cytochrome P450 1A2 (Homo sapiens, UniProt P05177); settings: bti-tn-5b1-4; also: in other assays of this panel Not Active means under 50% inhibition at 10 µM
T3 sequence (P05177 whole entry): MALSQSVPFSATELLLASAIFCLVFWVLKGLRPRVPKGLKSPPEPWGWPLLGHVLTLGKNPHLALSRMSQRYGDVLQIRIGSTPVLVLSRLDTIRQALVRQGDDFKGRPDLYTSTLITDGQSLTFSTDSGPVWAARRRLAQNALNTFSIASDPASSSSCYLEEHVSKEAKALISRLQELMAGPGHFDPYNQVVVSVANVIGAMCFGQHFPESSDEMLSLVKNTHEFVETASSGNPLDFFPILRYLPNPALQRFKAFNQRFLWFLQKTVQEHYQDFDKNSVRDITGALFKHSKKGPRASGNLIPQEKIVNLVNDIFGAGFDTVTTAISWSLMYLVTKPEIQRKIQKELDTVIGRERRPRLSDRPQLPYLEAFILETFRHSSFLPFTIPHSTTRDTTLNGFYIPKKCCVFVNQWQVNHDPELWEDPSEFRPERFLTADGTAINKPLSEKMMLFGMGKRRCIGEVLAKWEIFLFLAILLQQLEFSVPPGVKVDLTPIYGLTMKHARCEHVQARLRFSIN

Glucocorticoid receptor = biological target: T4, Glucocorticoid receptor (Homo sapiens, UniProt P04150); settings: hela s3; also: in other assays of this panel Not Active means under 50% inhibition at 10 µM
T4 sequence (P04150 whole entry): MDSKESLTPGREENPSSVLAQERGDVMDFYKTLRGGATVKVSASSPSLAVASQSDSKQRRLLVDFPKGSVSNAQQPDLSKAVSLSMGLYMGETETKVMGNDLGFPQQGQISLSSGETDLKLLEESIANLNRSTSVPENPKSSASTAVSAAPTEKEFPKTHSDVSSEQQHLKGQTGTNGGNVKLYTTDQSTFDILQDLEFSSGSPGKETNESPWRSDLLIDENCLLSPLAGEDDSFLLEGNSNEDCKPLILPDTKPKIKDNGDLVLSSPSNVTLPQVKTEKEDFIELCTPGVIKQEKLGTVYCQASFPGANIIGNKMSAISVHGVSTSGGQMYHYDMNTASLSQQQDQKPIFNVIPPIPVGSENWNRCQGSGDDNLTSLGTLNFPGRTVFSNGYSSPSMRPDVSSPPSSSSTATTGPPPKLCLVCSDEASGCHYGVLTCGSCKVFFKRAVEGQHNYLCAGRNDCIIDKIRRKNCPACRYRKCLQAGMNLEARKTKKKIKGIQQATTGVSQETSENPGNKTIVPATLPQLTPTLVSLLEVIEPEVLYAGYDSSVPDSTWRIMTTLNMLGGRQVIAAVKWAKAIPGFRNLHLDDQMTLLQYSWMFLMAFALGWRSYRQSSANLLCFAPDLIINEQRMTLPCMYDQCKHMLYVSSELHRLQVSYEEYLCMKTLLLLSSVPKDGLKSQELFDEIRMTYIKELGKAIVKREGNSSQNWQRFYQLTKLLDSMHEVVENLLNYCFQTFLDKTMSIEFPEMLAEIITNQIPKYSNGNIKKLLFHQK

[4] = DRUGMATRIX: Interleukin IL-1 radioligand binding (ligand: [125I] interleukin 1beta); type: cell membranes, Membrane; settings: nih3t3; Not Active = under 50% inhibition at 10 µM
[5] = DRUGMATRIX: Platelet-Derived Growth Factor (PDGF) radioligand binding (ligand: [125I] PDGF); type: cell-based; settings: nih3t3; Not Active = under 50% inhibition at 10 µM
Substance-K receptor = biological target: T5, Substance-K receptor (Homo sapiens, UniProt P21452); type: cell membranes, CHO, Membrane; also: in other assays of this panel Not Active means under 50% inhibition at 10 µM
T5 sequence (P21452 whole entry): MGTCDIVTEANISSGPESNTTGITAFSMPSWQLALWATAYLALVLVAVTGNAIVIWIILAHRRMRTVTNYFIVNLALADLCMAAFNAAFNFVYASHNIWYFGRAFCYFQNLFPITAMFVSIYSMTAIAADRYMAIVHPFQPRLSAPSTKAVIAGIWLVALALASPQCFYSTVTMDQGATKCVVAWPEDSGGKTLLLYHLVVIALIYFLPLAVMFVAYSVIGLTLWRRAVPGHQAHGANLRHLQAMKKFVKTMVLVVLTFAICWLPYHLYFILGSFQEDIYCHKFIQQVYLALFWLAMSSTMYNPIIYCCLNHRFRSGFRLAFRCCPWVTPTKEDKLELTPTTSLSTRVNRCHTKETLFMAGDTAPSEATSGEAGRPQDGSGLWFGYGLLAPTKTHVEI

Row | Compound | IC50 [1] | Ki [1] | IC50 [2] | IC50 [3] | IC50 (Cytochrome P450 1A2) | Ki (Cytochrome P450 1A2) | IC50 (Glucocorticoid receptor) | IC50 [4] | Ki [4] | IC50 [5] | Ki [5] | IC50 (Substance-K receptor; cho) | IC50 (Substance-K receptor; read-out: IC50) | Ki (Substance-K receptor; read-out: Ki)
1 | CC(O)CO (stereo not drawn) [PROPYLENE GLYCOL] | Not Active | Not Active | Not Active | Not Active | Not Active | Not Active | Not Active | Not Active | Not Active | Not Active | Not Active | Not Active | – | –
2 | c1ccc(Nc2ccc(Nc3ccccc3)cc2)cc1 | Not Active | Not Active | Not Active | Not Active | Not Active | Not Active | Not Active | Not Active | Not Active | Not Active | Not Active | Not Active | – | –
3 | CCOc1ccc(NC(C)=O)cc1 [PHENACETIN] | Not Active | Not Active | Not Active | Not Active | Not Active | Not Active | Not Active | Not Active | Not Active | Not Active | Not Active | Not Active | – | –
4 | CN(C)CCCN1c2ccccc2Sc2ccc(Cl)cc21 [CHLORPROMAZINE] | Not Active | Not Active | – | Not Active | – | – | Not Active | Not Active | Not Active | Not Active | Not Active | – | 27.2 µM | 9.07 µM
5 | CC(C)[C@H]1C(=O)N2CCC[C@H]2[C@]2(O)O[C@](NC(=O)[C@@H]3C=C4c5cccc6[nH]cc(c56)C[C@H]4N(C)C3)(C(C)C)C(=O)N12 [ERGOCORNINE] | Not Active | Not Active | Not Active | Not Active | Not Active | Not Active | Not Active | Not Active | Not Active | Not Active | Not Active | Not Active | – | –
6 | CC(C)(Oc1ccc(Cl)cc1)C(=O)O [CLOFIBRIC ACID] | Not Active | Not Active | Not Active | Not Active | – | – | Not Active | Not Active | Not Active | Not Active | Not Active | Not Active | – | –
7 | Cc1onc(O)c1CC(N)C(=O)O (racemic) [(R,S)-AMPA] | Not Active | Not Active | Not Active | Not Active | Not Active | Not Active | Not Active | Not Active | Not Active | Not Active | Not Active | Not Active | – | –
8 | Cc1ccc2cc3c(ccc4ccccc43)c3c2c1CC3 [3-METHYLCHOLANTHRENE] | Not Active | Not Active | Not Active | Not Active | – | – | Not Active | Not Active | Not Active | Not Active | Not Active | Not Active | – | –
9 | CC1(C)S[C@@H]2[C@H](NC(=O)Cc3ccccc3)C(=O)N2[C@H]1C(=O)O [PENICILLIN G] | Not Active | Not Active | Not Active | Not Active | – | – | Not Active | Not Active | Not Active | Not Active | Not Active | Not Active | – | –
10 | N=C(N)NCCN1CCCCCCC1 [GUANETHIDINE] | Not Active | Not Active | Not Active | Not Active | – | – | Not Active | Not Active | Not Active | Not Active | Not Active | Not Active | – | –
11 | Nc1c(Br)cc(Br)cc1CN[C@H]1CC[C@H](O)CC1 [AMBROXOL] | Not Active | Not Active | Not Active | Not Active | – | – | Not Active | Not Active | Not Active | Not Active | Not Active | Not Active | – | –
12 | CN(C)c1nc(N(C)C)nc(N(C)C)n1 [ALTRETAMINE] | Not Active | Not Active | Not Active | Not Active | – | – | Not Active | Not Active | Not Active | Not Active | Not Active | Not Active | – | –
13 | c1ccc2c(c1)c1cccc3ccc4cccc2c4c31 [BENZO[E]PYRENE] | Not Active | Not Active | Not Active | Not Active | – | – | Not Active | Not Active | Not Active | Not Active | Not Active | Not Active | – | –
14 | Sc1ncnc2nc[nH]c12 [MERCAPTOPURINE ANHYDROUS] | Not Active | Not Active | Not Active | Not Active | Not Active | Not Active | – | Not Active | Not Active | Not Active | Not Active | Not Active | – | –
15 | CC(C)C(=O)Nc1ccc([N+](=O)[O-])c(C(F)(F)F)c1 [FLUTAMIDE] | Not Active | Not Active | Not Active | Not Active | Not Active | Not Active | – | Not Active | Not Active | Not Active | Not Active | Not Active | – | –
16 | C[C@H]1c2cccc(O)c2C(=O)C2=C(O)[C@]3(O)C(=O)C(C(N)=O)=C(O)[C@@H](N(C)C)[C@@H]3[C@@H](O)[C@@H]21.O [DOXYCYCLINE] | Not Active | Not Active | Not Active | Not Active | Not Active | Not Active | – | Not Active | Not Active | Not Active | Not Active | Not Active | – | –
